Laboratory results published in patent publication US20190070140A1, “COMPOSITION COMPRISING PROTECTIN DX AS ACTIVE INGREDIENT FOR PREVENTING OR TREATING HYPERLIPIDEMIA OR FATTY LIVER DISEASE” (Solvit P&F, priority 2017, published 2019).

Experiments:
[1] = Body weight, liver weight and epididymal fat content of HFD mice; type: in vivo, mouse; settings: PDX i.p. 1 μg/mice/day for 8 weeks, compared to HFD diet mice
Description: The present study has received the approval of the Institutional Animal Review Committee (Institutional Animal Care and Use Committee in Korea University, Seoul, Korea). The animal experiment was conducted according to the Guide for Care and Use of Laboratory Animals (NH publication, 8th Ed., 2011). A control group and a group of male C57BL/6J(B6) mice at 8 weeks of age were subjected to a normal diet (ND, Brogaarden, Gentofte, Denmark) and a high fat diet (HFD, Research Diets, New Brunswick, N.J., USA) for 8 weeks, respectively. The HFD (high fat diet) group was provided with intra-peritoneal injection of PDX for 8 weeks (1 μg/mice/day). An ethanol injection group was used as a control group. According to the above experimental procedures conducted for 8 weeks, the present inventors measured body weights, daily energy intakes, liver weights and epididymal fat contents, with respect to five mice per group.

SREBP1, FAS and SCD1 = assay: Western-blot assay of adipogenesis-related genes in palmitate-treated HepG2 cells; type: cell-based, Human
Description: Human liver cells, that is, HepG2 cells (ATCC, Manassas, Va., USA) were cultured in high-glucose Dulbecco's modified eagle medium (DMEM, Invitrogen, Carlsbad, Calif., USA), which includes 10% fetal bovine serum (FBS, Invitrogen), 100 units/mL of penicillin and 100 μg/ml of streptomycin. The cells were incubated at 37° C. under a condition of 5% CO2.
Mycoplasma was not detected in HepG2 cells. PDX (Cayman Chemical, Ann Arbor, Mich., USA) was dissolved in ethanol. Sodium palmitate (Sigma, St. Louis, Mo., USA) was mixed with 2% BSA (fatty acid free level; Sigma) in DMEM. […] In all experiments, the cells were treated with palmitate-BSA and PDX for 24 hours, while 2% BSA-ethanol was used as a control group.
After collecting HepG2 cells, protein was extracted from the cells with a buffer (PRO-PREF; Intron Biotechnology, Seoul, Korea) at 4° C. for 1 hour. A protein sample (35 μg) was applied to 12% SDS-PAGE, transferred to a nitrocellulose film (Amersham Bioscience, Westborough, Mass., USA), detected with a primary antibody, followed by probing with a secondary antibody and another secondary antibody conjugated with horseradish […] (Santa Cruz Biotechnology). The sample was detected by ECL kit.
Under 70% comfluency, 0 to 20 nmol/L […] (si)RNA oligonucleotide to ORP150 purchased from Santa Cruz Biotechnology was transfected to inhibit gene expression. Scramble siRNA was used as a control group. 2 or 4 μg of pCMV3-ORP150 (Sino Biological, Beijing, China) was transiently transfected, leading to over-expression of ORP150. pCMV3 empty-vector was used as a control group. According to instruction of the manufacturer, transfection was executed using lipofectamine 2000 (Invitrogen).
The present inventors have executed western-blot assay of SREBP1 expression in HepG2 cells that were treated with 200 μM palmitate and/or with 0 to 4 μg of ORP150 for 24 hours.

IRE-1, eIF2α and CHOP = assay: Western-blot assay of ER stress markers in livers of HFD mice; type: in vivo, mouse; settings: PDX i.p. 1 μg/mice/day for 8 weeks, FIG. 5C
Description: The present study has received the approval of the Institutional Animal Review Committee (Institutional Animal Care and Use Committee in Korea University, Seoul, Korea). The animal experiment was conducted according to the Guide for Care and Use of Laboratory Animals (NH publication, 8th Ed., 2011). A control group and a group of male C57BL/6J(B6) mice at 8 weeks of age were subjected to a normal diet (ND, Brogaarden, Gentofte, Denmark) and a high fat diet (HFD, Research Diets, New Brunswick, N.J., USA) for 8 weeks, respectively. The HFD (high fat diet) group was provided with intra-peritoneal injection of PDX for 8 weeks (1 μg/mice/day). An ethanol injection group was used as a control group. […] A protein sample (35 μg) was applied to 12% SDS-PAGE, transferred to a nitrocellulose film (Amersham Bioscience, Westborough, Mass., USA), detected with a primary antibody, followed by probing with a secondary antibody and another secondary antibody conjugated with horseradish […] (Santa Cruz Biotechnology). The sample was detected by ECL kit. The present inventors have assessed PDX effects upon lipid accumulation in a mouse. For this purpose, a liver cut section from a mouse was subjected to histological assay and western-blot assay through H&E staining and Oil-Red-O staining, while TG accumulation was measured using a TG analysis kit.

FOXO1 = assay: Western-blot assay of FOXO1 acetylation in HepG2 cells (immuno-precipitation); type: cell-based, Human; settings: 0 to 2 μM PDX, 24 hours, FIG. 3B
Description: After collecting HepG2 cells, protein was extracted from the cells with a buffer (PRO-PREF; Intron Biotechnology, Seoul, Korea) at 4° C. for 1 hour. A protein sample (35 μg) was applied to 12% SDS-PAGE, transferred to a nitrocellulose film (Amersham Bioscience, Westborough, Mass., USA), detected with a primary antibody, followed by probing with a secondary antibody and another secondary antibody conjugated with horseradish […] (Santa Cruz Biotechnology). The sample was detected by ECL kit. Whole protein of HepG2 cell was extracted using an immune-precipitation buffer (IP buffer: 50 mM Tris-HCl, pH 7.8, 150 mM NaCl, 1% IGEPAL CA630) and then diluted to a concentration of 1 mg/mL. A polyclonal antibody to FOXO1 (Santa Cruz Biotechnology) diluted 1:150 was added to the mixture and the sample was incubated at 4° C. overnight. After incubation, each of the samples was provided with 50 μL of a protein A/G-Sepharose bead suspension (Santa Cruz Biotechnology), followed by gently mixing the same at 4° C. for 1 hour. The treated samples were subjected to centrifugation at 12,000 rpm for 30 seconds; and the beads were washed in IP buffer three times. The isolated beads were suspended again in 1×SDS-PAGE loading buffer, heated at 95° C. for 5 minutes, followed by vortexing and flash-centrifugation. […]

SMILES: CC/C=C\C[C@H](O)/C=C/C=C\C=C\[C@@H](O)C/C=C\C/C=C\CCC(=O)O [PDX, 10S,17S-dihydroxy-docosa-4Z,7Z,11E,13Z,15E,19Z-hexaeonic acid]
- body weights ([1]; FIG. 6A): significantly reduced
- liver weights ([1]; FIG. 6C): significantly decreased
- epididymal fat contents ([1]; FIG. 6D): significantly decreased
- expression of adipogenesis-related genes including SREBP1, FAS and SCD1 (SREBP1, FAS and SCD1; 24 hours, FIG. 1B): inhibited
- expression of adipogenesis-related genes SREBP1, FAS and SCD1 (SREBP1, FAS and SCD1; scramble siRNA, PDX administration, FIG. 2C): inhibited
- PDX effects of inhibiting the expression of adipogenesis-related genes (SREBP1, FAS and SCD1; silencing ORP150, FIG. 2C): significantly reduced
- liver ER stress markers IRE-1, eIF2α and CHOP (IRE-1, eIF2α and CHOP): inhibited
- PDX effects of reducing FOXO1 acetylation (FOXO1; HepG2 cells transfected with AMPK siRNA): inhibited
- FOXO1 acetylation (FOXO1; HepG2 cells, scramble siRNA): reduced depending upon PDX concentration
